# Results: patent US4393225A, “AI-77 Compounds and pharmaceutically acceptable salts thereof” (Asahi Kasei Kogyo Kabushiki Kaisha, priority 1979, dated 1983)
# System: ulcer
# Assay: Anti-ulcer test (restraint and water immersion ulcer in rats, i.p.)
# Assay type: in vivo, Male Wistar rats
# Conditions: Rattus norvegicus, ip; 50 mg/kg i.p.; read-out: % Inhibition of Ulcer
# Summary of the method: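 Male Wistar rats (~150 g), fasted 24 h, dosed i.p. with compound in physiological saline; 1 h later restrained and immersed to xiphisternum in 21 °C water for 6 h. Stomachs examined microscopically, ulcers scored 0–3, and percent inhibition calculated.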
row,SMILES,inhibition in vivo at 50 mg/kg [%]
1,CCCCCCCCCCCCCCCCCCOc1cccc2c1C(=O)OC(C(CC(C)C)NC(=O)C(O)C1OC(=O)CC1NCCCC)C2 (centres unmarked) [IIIa-22-78],72
2,CCCCNC1CC(=O)OC1C(O)C(=O)NC(CC(C)C)C1Cc2cccc(OCCCl)c2C(=O)O1 (centres unmarked) [IIIa-22-79],94
3,CCCCNC1CC(=O)OC1C(O)C(=O)NC(CC(C)C)C1Cc2cccc(OCCCBr)c2C(=O)O1 (centres unmarked) [IIIa-22-92],94
4,CCCCCCCCCCCCCCCCCCNC1CC(=O)OC1C(OC(C)=O)C(=O)NC(CC(C)C)C1Cc2cccc(OCC)c2C(=O)O1 (centres unmarked) [IIIa-23-3],44
5,CCNC1CC(=O)OC1C(OC)C(=O)NC(CC(C)C)C1Cc2cccc(OCC)c2C(=O)O1 (centres unmarked) [IIIa-24-1],56
6,CCNC1CC(=O)OC1C(OCC)C(=O)NC(CC(C)C)C1Cc2cccc(OCC)c2C(=O)O1 (centres unmarked) [IIIa-24-2],56
7,CCCCCCCCCCCCCCCCCCNC1CC(=O)OC1C(OCC)C(=O)NC(CC(C)C)C1Cc2cccc(OCCCCCCC)c2C(=O)O1 (centres unmarked) [IIIa-24-4],44
8,CCCCNC1CC(=O)OC1C(OCCCC)C(=O)NC(CC(C)C)C1Cc2cccc(OC)c2C(=O)O1 (centres unmarked) [IIIa-24-10],56
9,CCCCOc1cccc2c1C(=O)OC(C(CC(C)C)NC(=O)C(OC)C1OC(=O)CC1NCC)C2 (centres unmarked) [IIIa-24-16],56
10,CCCCOC(C(=O)NC(CC(C)C)C1Cc2cccc(O)c2C(=O)O1)C1OC(=O)CC1NCC (centres unmarked) [IIIa-25-1],66
11,CCCCCCCCCCCCCCCCCCNC1CC(=O)OC1C(OCCCC)C(=O)NC(CC(C)C)C1Cc2cccc(O)c2C(=O)O1 (centres unmarked) [IIIa-25-3],56
12,CCNC1CC(=O)OC1C(OC)C(=O)NC(CC(C)C)C1Cc2cccc(O)c2C(=O)O1 (centres unmarked) [IIIa-25-9],66
13,COC(C(=O)NC(CC(C)C)C1Cc2cccc(O)c2C(=O)O1)C1OC(=O)CC1NCC(Cl)(Cl)Cl (centres unmarked) [IIIa-25-10],66
14,CCCCOC(C(=O)NC(CC(C)C)C1Cc2cccc(OC(C)=O)c2C(=O)O1)C1OC(=O)CC1NCC (centres unmarked) [IIIa-26-1],66
15,CCCCCCCCCCCCCCCCCCNC1CC(=O)OC1C(OCCCC)C(=O)NC(CC(C)C)C1Cc2cccc(OC(C)=O)c2C(=O)O1 (centres unmarked) [IIIa-26-3],44
16,CCCCCCCCCCCCCCCCCC(=O)Oc1cccc2c1C(=O)OC(C(CC(C)C)NC(=O)C(OCCCC)C1OC(=O)CC1NCC)C2 (centres unmarked) [IIIa-26-5],56
17,CCNC1CC(=O)OC1C(OC)C(=O)NC(CC(C)C)C1Cc2cccc(OC(=O)C(C)C)c2C(=O)O1 (centres unmarked) [IIIa-26-9],56
18,CNC1CC(=O)OC1C(OC(C)=O)C(=O)NC(CC(C)C)C1Cc2cccc(O)c2C(=O)O1 (centres unmarked) [IIIa-28-1],66
19,CNC1CC(=O)OC1C(OC(=O)CC(C)C)C(=O)NC(CC(C)C)C1Cc2cccc(O)c2C(=O)O1 (centres unmarked) [IIIa-28-2],66
20,CNC1CC(=O)OC1C(OC(=O)C(Cl)(Cl)Cl)C(=O)NC(CC(C)C)C1Cc2cccc(O)c2C(=O)O1 (centres unmarked) [IIIa-28-3],66
21,CNC1CC(=O)OC1C(OC(C)=O)C(=O)NC(CC(C)C)C1Cc2cccc(OC(C)=O)c2C(=O)O1 (centres unmarked) [IIIa-29-1],56
22,CNC1CC(=O)OC1C(O)C(=O)NC(CC(C)C)C1Cc2cccc(OC(C)=O)c2C(=O)O1 (centres unmarked) [IIIa-30-1],78
23,CNC1CC(=O)OC1C(O)C(=O)NC(CC(C)C)C1Cc2cccc(OC)c2C(=O)O1 (centres unmarked) [IIIa-31-1],94

row,SMILES,inhibition in vivo at 50 mg/kg [%]
1,CCOc1cccc2c1C(=O)OC(C(CC(C)C)NC(=O)C(O)C1OC(=O)CC1NC)C2 (centres unmarked) [IIIa-31-2],94
2,CCCCCCCCCCCCCCCCCCOc1cccc2c1C(=O)OC(C(CC(C)C)NC(=O)C(O)C1OC(=O)CC1NC)C2 (centres unmarked) [IIIa-31-3],78
3,CNC1CC(=O)OC1C(O)C(=O)NC(CC(C)C)C1Cc2cccc(OCCC(C)C)c2C(=O)O1 (centres unmarked) [IIIa-31-4],89
4,CCOc1cccc2c1C(=O)OC(C(CC(C)C)NC(=O)C(OC(C)=O)C1OC(=O)CC1NC)C2 (centres unmarked) [IIIa-32-1],56
5,CCOc1cccc2c1C(=O)OC(C(CC(C)C)NC(=O)C(OC(=O)C(C)C)C1OC(=O)CC1NC)C2 (centres unmarked) [IIIa-32-2],44
6,CCCCOC(C(=O)NC(CC(C)C)C1Cc2cccc(OC)c2C(=O)O1)C1OC(=O)CC1NC (centres unmarked) [IIIa-33-1],56
7,CCCCOc1cccc2c1C(=O)OC(C(CC(C)C)NC(=O)C(OCCCC)C1OC(=O)CC1NC)C2 (centres unmarked) [IIIa-33-3],56
8,CNC1CC(=O)OC1C(OC)C(=O)NC(CC(C)C)C1Cc2cccc(O)c2C(=O)O1 (centres unmarked) [IIIa-34-1],66
9,CNC1CC(=O)OC1C(OC)C(=O)NC(CC(C)C)C1Cc2cccc(OC(C)=O)c2C(=O)O1 (centres unmarked) [IIIa-35-1],56
10,CC(=O)OC(C(=O)NC(CC(C)C)C1Cc2cccc(O)c2C(=O)O1)C1C=CC(=O)O1 (centres unmarked) [IVa-1-1],44
11,CCC(=O)OC(C(=O)NC(CC(C)C)C1Cc2cccc(O)c2C(=O)O1)C1C=CC(=O)O1 (centres unmarked) [IVa-1-2],44
12,CCCC(=O)OC(C(=O)NC(CC(C)C)C1Cc2cccc(O)c2C(=O)O1)C1C=CC(=O)O1 (centres unmarked) [IVa-1-3],44
13,CC(C)CC(NC(=O)C(OC(=O)C(C)C)C1C=CC(=O)O1)C1Cc2cccc(O)c2C(=O)O1 (centres unmarked) [IVa-1-4],44
14,CC(C)CC(=O)OC(C(=O)NC(CC(C)C)C1Cc2cccc(O)c2C(=O)O1)C1C=CC(=O)O1 (centres unmarked) [IVa-1-5],44
15,CCCCC(=O)OC(C(=O)NC(CC(C)C)C1Cc2cccc(O)c2C(=O)O1)C1C=CC(=O)O1 (centres unmarked) [IVa-1-6],44
16,CCCCCC(=O)OC(C(=O)NC(CC(C)C)C1Cc2cccc(O)c2C(=O)O1)C1C=CC(=O)O1 (centres unmarked) [IVa-1-7],44
17,CCCCCCC(=O)OC(C(=O)NC(CC(C)C)C1Cc2cccc(O)c2C(=O)O1)C1C=CC(=O)O1 (centres unmarked) [IVa-1-8],33
18,CCCCCCCC(=O)OC(C(=O)NC(CC(C)C)C1Cc2cccc(O)c2C(=O)O1)C1C=CC(=O)O1 (centres unmarked) [IVa-1-9],33
19,CCCCCCCCCCCC(=O)OC(C(=O)NC(CC(C)C)C1Cc2cccc(O)c2C(=O)O1)C1C=CC(=O)O1 (centres unmarked) [IVa-1-10],33
20,CCCCCCCCCCCCCCCCCC(=O)OC(C(=O)NC(CC(C)C)C1Cc2cccc(O)c2C(=O)O1)C1C=CC(=O)O1 (centres unmarked) [IVa-1-11],33
21,CC(C)CC(NC(=O)C(OC(=O)C(Cl)(Cl)Cl)C1C=CC(=O)O1)C1Cc2cccc(O)c2C(=O)O1 (centres unmarked) [IVa-1-12],44
22,CCCCC(=O)Oc1cccc2c1C(=O)OC(C(CC(C)C)NC(=O)C(O)C1C=CC(=O)O1)C2 (centres unmarked) [IVa-3-4],33
23,CCCCCC(=O)Oc1cccc2c1C(=O)OC(C(CC(C)C)NC(=O)C(O)C1C=CC(=O)O1)C2 (centres unmarked) [IVa-3-5],33

row,SMILES,inhibition in vivo at 50 mg/kg [%]
1,CCCCCCC(=O)Oc1cccc2c1C(=O)OC(C(CC(C)C)NC(=O)C(O)C1C=CC(=O)O1)C2 (centres unmarked) [IVa-3-6],33
2,CCCCCCCC(=O)Oc1cccc2c1C(=O)OC(C(CC(C)C)NC(=O)C(O)C1C=CC(=O)O1)C2 (centres unmarked) [IVa-3-7],33
3,CCCCCCCCCCCC(=O)Oc1cccc2c1C(=O)OC(C(CC(C)C)NC(=O)C(O)C1C=CC(=O)O1)C2 (centres unmarked) [IVa-3-8],33
4,CCCCCCCCCCCCCCCCCC(=O)Oc1cccc2c1C(=O)OC(C(CC(C)C)NC(=O)C(O)C1C=CC(=O)O1)C2 (centres unmarked) [IVa-3-9],33
5,CC(C)CC(NC(=O)C(O)C1C=CC(=O)O1)C1Cc2cccc(OC(=O)C(C)C)c2C(=O)O1 (centres unmarked) [IVa-3-10],44
6,CC(C)CC(=O)Oc1cccc2c1C(=O)OC(C(CC(C)C)NC(=O)C(O)C1C=CC(=O)O1)C2 (centres unmarked) [IVa-3-11],44
7,CCCCCCCCC=CCCCCCCCC(=O)Oc1cccc2c1C(=O)OC(C(CC(C)C)NC(=O)C(O)C1C=CC(=O)O1)C2 (centres unmarked) [IVa-3-12],33
8,CC(C)CC(NC(=O)C(O)C1C=CC(=O)O1)C1Cc2cccc(OC(=O)C(Cl)(Cl)Cl)c2C(=O)O1 (centres unmarked) [IVa-3-13],44
9,CC(C)CC(NC(=O)C(O)C1C=CC(=O)O1)C1Cc2cccc(OC(=O)CCC3CCCC3)c2C(=O)O1 (centres unmarked) [IVa-3-15],33
10,COc1ccc(C(=O)Oc2cccc3c2C(=O)OC(C(CC(C)C)NC(=O)C(O)C2C=CC(=O)O2)C3)cc1 (centres unmarked) [IVa-3-16],33
11,COC(C)CC(=O)Oc1cccc2c1C(=O)OC(C(CC(C)C)NC(=O)C(O)C1C=CC(=O)O1)C2 (centres unmarked) [IVa-3-17],33
12,C/C=C/C(=O)Oc1cccc2c1C(=O)OC(C(CC(C)C)NC(=O)C(O)C1C=CC(=O)O1)C2 (centres unmarked) [IVa-3-18],33
13,COc1cccc2c1C(=O)OC(C(CC(C)C)NC(=O)C(O)C1C=CC(=O)O1)C2 (centres unmarked) [IVa-4-1],44
14,CCOc1cccc2c1C(=O)OC(C(CC(C)C)NC(=O)C(O)C1C=CC(=O)O1)C2 (centres unmarked) [IVa-4-2],44
15,CCCCOc1cccc2c1C(=O)OC(C(CC(C)C)NC(=O)C(O)C1C=CC(=O)O1)C2 (centres unmarked) [IVa-4-3],44
16,CC(C)CCOc1cccc2c1C(=O)OC(C(CC(C)C)NC(=O)C(O)C1C=CC(=O)O1)C2 (centres unmarked) [IVa-4-4],44
17,CCCCCCCCCCCCCCCCCCOc1cccc2c1C(=O)OC(C(CC(C)C)NC(=O)C(O)C1C=CC(=O)O1)C2 (centres unmarked) [IVa-4-5],33
18,CC(C)CC(NC(=O)C(O)C1C=CC(=O)O1)C1Cc2cccc(OCCCl)c2C(=O)O1 (centres unmarked) [IVa-4-6],44
19,CCCCCCCCC=CCCCCCCCCOc1cccc2c1C(=O)OC(C(CC(C)C)NC(=O)C(O)C1C=CC(=O)O1)C2 (centres unmarked) [IVa-4-7],33
20,CC(C)CC(NC(=O)C(O)C1C=CC(=O)O1)C1Cc2cccc(OCc3ccccc3)c2C(=O)O1 (centres unmarked) [IVa-4-9],33
21,CC(C)CC(NC(=O)C(O)C1C=CC(=O)O1)C1Cc2cccc(OCC3CCCCC3)c2C(=O)O1 (centres unmarked) [IVa-4-11],33
22,CC(C)CC(NC(=O)C(O)C1C=CC(=O)O1)C1Cc2cccc(OCCc3ccccc3)c2C(=O)O1 (centres unmarked) [IVa-4-12],44
